# In paper PMC8300879 (Journal of medicinal chemistry, 2021):
# What was measured:
# [1] = tested on: ABC derived from IPF patients; assay: 3D organoid; type: cell-based, human; conditions: ABC from IPF patients (n = 3), 14 days
# [2] = tested on: acetylation of histone H3 (primary substrate of HDAC1 and other nuclear HDACs) in NB4, U87 and U2OS cells; assay: Western blot, acetylation of histone H3 in cancer cell lines; type: cell-based; conditions: 5 μM for 30 h
# [3] = tested on: tubulin acetylation (the client protein of HDAC6) in NB4, U87 and U2OS cells; assay: Western blot, acetylation of α-tubulin in cancer cell lines; type: cell-based; conditions: 5 μM for 30 h; for acetylation of tubulin: NB4 and U87 cells
# [4] = tested on: zebrafish larvae (Danio rerio); assay: Toxicity screen and optokinetic visual behaviour assay in zebrafish larvae; type: in vivo
# [5] = tested on: TGF-β1-stimulated human lung parenchyma; assay: Human lung tissue explant model of TGF-β1-dependent fibrogenesis; type: cell-based; conditions: 6h 4.1 μM, TGF-β1 10 ng/ml, 7 days
# [6] = tested on: TA98 and TA100 strains of Salmonella typhimurium; assay: Ames test with and without S9 fraction; type: cell-based; conditions: TA98 and TA100, with and without S9 fraction of rat liver, 1–75 μM
Structure (SMILES),spheres formation [1],histone H3 acetylation [2],acetylation of tubulin [3],acetylation of α-tubulin versus histone H3 ([3]; U2OS cell line),"toxic effects observed ([4]; 100 μM, 3 days old larvae treated for 2 days)","well tolerated concentration ([4]; 3 days old larvae treated for 2 days, 1-100 μM)","visual behavior versus vehicle control (0.1% DMSO) ([4]; five days old larvae, 1 to 100 μM)",mRNA expression for HDAC6 ([5]; n = 3 donors),mRNA expression for collagen type I ([5]; n = 6 donors),mRNA expression for collagen type III ([5]; n = 6 donors),mRNA expression for fibronectin ([5]; n = 6 donors),mRNA expression for α-SMA ([5]; n = 6 donors),mutagenic effect [6]
CC1(C)c2ccccc2N(Cc2ccc(C(=O)NO)cc2)C1c1ccncc1 (racemic) [(±)-6l],complete inhibition,unchanged,marked acetylation of tubulin,preferentially promote acetylation of α-tubulin,,,,,,,,,
"CC1(C)c2ccccc2N(Cc2ccc(C(=O)NO)cc2)C1c1cccnc1 (racemic) [(±)-6h, (±)-4-((3,3-Dimethyl-2-(pyridin-3-yl)indolin-1-yl)methyl)-N-hydroxybenzamide]",complete inhibition,unchanged,marked acetylation of tubulin,,some larvae failed to inflate their swim bladder and presented mild cardiac edema,up to 50 μM,no significant changes,significantly inhibited,significantly inhibited,significantly inhibited,significantly inhibited,significantly inhibited,no mutagenic effect
"CN1CCC2(CC1)c1ccccc1N(Cc1ccc(C(=O)NO)cc1)C2c1ccccc1 (racemic) [(±)-6a, (±)-N-Hydroxy-4-((1’-methyl-2-phenylspiro[indoline-3,4’-piperidin]-1-yl)methyl)benzamide]",complete inhibition,unchanged,marked acetylation of tubulin,,,,,,,,,,
"CN1CCC2(CC1)c1ccccc1N(Cc1ccc(C(=O)NO)cc1)C2c1ccccc1F (racemic) [(±)-6d, (±)-4-((2-(2-Fluorophenyl)-1’-methylspiro[indoline-3,4’-piperidin]-1-yl)methyl)-N-hydroxybenzamide]",complete inhibition,also induced the acetylation of histone H3,equally effective in inhibiting HDAC6,,,,,,,,,,
"CN1CCC2(CC1)c1ccccc1N(Cc1ccc(C(=O)NO)cc1)C2c1ccc(F)cc1 (racemic) [(±)-6e, (±)-4-((2-(4-Fluorophenyl)-1’-methylspiro[indoline-3,4’-piperidin]-1-yl)methyl)-N-hydroxybenzamide]",,unchanged,marked acetylation of tubulin,,,,,,,,,,
